{"source": "patent US20070225245A1", "about": "“Viral vector driven mutant bacterial cytosine deaminase gene and uses thereof” (priority 1998, published 2007)", "format_in_all_cases": "in vivo, athymic nude mice", "key": {"[1]": {"tested_on": "Intracranial U87MG Human Gliomas", "assay": "Survival, intracranial glioma, Ad, 5-FC and external beam radiation", "description": "This therapeutic effect of AdCMVCD/5-FC on glioma cells could be further enhanced with concurrent fractionated ionizing external beam radiation (Table 9). U87MG cells (5×10^5) were stereotactically injected into the right frontal cortex of athymic nude mice. Tumors were established for 5 days before intratumoral injection of AdCMVCD (10^9 pfu/mouse). Mice were then treated IP with 5-FC (500 mg/kg bid) on days 2-9 post infection, irradiated with local external beam 330 cGy ^60Co radiation on days 4 and 7 post-infection, and monitored for survival. Kaplan-Meier survival curves and median and 20% survival values were calculated by standard methods."}, "D54MG xenografts": {"tested_on": "D54MG xenografts", "assay": "Subcutaneous human glioma xenograft model, tumor growth", "description": "(§1) Treatment was started at the time of established tumor growth (Day 0 equal to 14 days after tumor cell injection). Animals were infected i.t. with 1×10^8 TCID50 AdbCDwt or AdbCD-D314A on Days 0, 7, and 14, and then irradiated with 2 Gy on Days 4, 7 and 10. 5-FC was injected i.p. at 500 mg/kg on Days 0 to 4, 7 to 11, and 14 to 18. Data points represent the mean change in tumor surface area relative to Day 0 for each group of animals.\nas §1, with “to 17” for “to 14”, “TCID50” for “TCID50 AdbCDwt or”, “and” for “and then”, “with 5” for “with 2”\nTo assess anti-tumor effects on established solid tumors, D54MG glioma cells (2×10^7) were injected s.c. into female athymic nude mice. Treatment was started 14 days post-tumor cell injection at the time of established tumor growth (tumors were 6-8 mm in diameter), noted as Day 0. […] Tumor size was monitored twice a week with Vernier calipers. Tumor surface area (length×width in mm^2) was calculated for each group of 10 mice and plotted as a percentage change over time relative to the mean size on Day 0 for each group."}, "[2]": {"tested_on": "Intracranial D54MG gliomas", "assay": "Survival, intracranial glioma, HSV and 5-FC", "conditions": "saline and 5-FC", "description": "Two days later, mice were begun on twice daily intraperitoneal injections of saline (1 ml) or 5-FC (500 mg/kg). Mice were followed for survival.\nStudies were undertaken to determine the efficacy of the HSV construct, M012, in in vivo murine glioma models. […] The median survival of animals receiving saline plus 5-FC was 34 days. In a similar study with the D54MG intracranial model, median survival of mice injected intratumorally with M012 and administered 5-FC was 40 days, compared to 27 days with M012 plus saline and 19 days with saline and 5-FC (FIG. 14)."}, "Panc2.03 xenografts": {"tested_on": "Panc2.03 xenografts", "assay": "Subcutaneous human pancreatic tumor xenograft, tumor growth", "conditions": "PBS plus 5-FC", "description": "Animals were injected i.t. with 1×10^7 TCID50 of AdbCD-D314A or 1×10^8 TCID50 of AdbCDwt on Days 0, 7, and 14. 5-FC was administered i.p. at 400 mg/kg qd×5/week for 3 weeks starting on Day 1. Data points represent the mean change in tumor surface area relative to Day 0 for each group of animals.\nTo compare anti-tumor effects of AdbCD-D314A and AdbCDwt mediated molecular chemotherapy on established solid tumors, 7×10^6 Panc2.03 pancreatic cancer cells were injected s.c. into female athymic nude mice. Treatment was started 11 days post-tumor cell injection at the time of established tumor growth (tumors were 6-8 mm in diameter), noted as Day 0. Animals were randomly divided into groups receiving different treatments: 1) AdbCDwt plus 5-FC; 2) AdbCD-D314A plus 5-FC; 3) AdbCD-D314A plus PBS; 4) PBS plus 5-FC. Mice were injected i.t. with 1×10^8 TCID50 per tumor AdbCDwt or with 1×10^7 TCID50 AdbCD-D314A on Days 0, 7, and 14. Three groups of mice (# 1, 2 and 4) received 5-FC i.p. at 400 mg/kg on Days 1 to 5, 8 to 12, and 15 to 19."}, "[3]": {"conditions": "Saline (no virus) + 5-FC, no XRT"}}, "data": [{"molecule": "Nc1nc(=O)[nH]cc1F", "note": "[5-FC, 5-fluorocytosine]", "values": [{"measurement": "Survival 20%", "setting": "[1]; Saline (no virus) + 5-FC + XRT", "value": 32}, {"measurement": "Survival Median", "setting": "[1]; Saline (no virus) + 5-FC + XRT", "value": 31}, {"measurement": "Survival 20%", "setting": "[1]; [3]", "value": 55}, {"measurement": "Survival Median", "setting": "[1]; [3]", "value": 28}, {"measurement": "mean time to tumor doubling", "setting": "D54MG xenografts; 5-FC alone", "value": 13, "unit": "days"}, {"measurement": "mean time to tumor doubling", "setting": "D54MG xenografts; 5-FC plus radiation (3×2 Gy)", "value": 15, "unit": "days"}, {"measurement": "median survival", "setting": "[2]", "value": 19, "unit": "days"}, {"measurement": "mean time to tumor doubling", "setting": "Panc2.03 xenografts", "value": 22, "unit": "days"}]}]}
